# According to US10889812B2, “Short non-coding protein regulatory RNAs (sprRNAs) and methods of use” (University of Maryland, Baltimore, priority 2014, dated 2021):
# Key:
# [1] = tested on: HBE4 cells; assay: Wound healing assay (gap closure); format: cell-based, human; conditions: HBE4, vs Scr control
# Excerpt: (§1) For cell migration, we used two complementary assays. […] To compensate potential differences in the cell numbers among different treatment conditions, we seeded 10% less cells for Ant-163 treated HBE4 cells and 10% more cells for piR-L-163 transfected H1792 cells.
# (§2) Two complimentary methods were used. For quantitative fluorescent dye assay, Innocyto™ Cell migration Assay kit (EMD Millipore) was used. Briefly, 24 hrs after treatment, 1×10^5 cells (10% less for Ant-163 treated cells or 10% more for piR-L-163 treated cells) were loaded to the upper chamber with growth factor-free Keratinocyte-SFM for (HBE4 cells) or serum-free DMEM (for H1792 cells) with the bottom chamber exposed to completed culture medium. Negative controls were used with 3 μM Latrunculin A. After 12 hrs incubation, fluorescence was measured using a fluorescence plate reader 485 nm (excitation) and 520 nm (emission) according to the manufacturer's instruction. For wound-healing assay, cells (24 hrs after treatment with different DNA or RNA oligonucleotides) were grown to confluence followed by scratching with a pipette tip to create a gap. The floating cells were removed and the gaps were monitored/photographed every 12 hrs.
# [2] = tested on: HBE4 cells as well as primary normal human bronchial epithelial (NHBE) cells; assay: Cell viability and cell growth curve assay (MTT, trypan blue); format: cell-based; conditions: compared with cells treated with scrambled DNA oligonucleotides (Scr)
# Description: We then wanted to determine whether piR-L-163 (SEQ ID NO:282) plays a functional role in human bronchial epithelial cells. We treated HBE4 cells as well as primary normal human bronchial epithelial (NHBE) cells with piR-L-163 complementary DNA oligonucleotides (Ant-163) (SEQ ID NO:496) or RNA oligonucleotides (Ant-163R) (SEQ ID NO:497) in the experiment. […] Cell cycle distributions were measured every 2 hrs. […]
# Cell viability and cell growth curve assay were determined by MTT assay and trypan blue exclusion assay, respectively as described previously (Kirino, Y. & Mourelatos, Z. Mouse Piwi-interacting RNAs are 2′-O-methylated at their 3′ termini Nat Struct Mol Biol. 14, 347-348 (2007)). BrieflySpecifically, MTT (5 mg/ml) was added into cells and incubated at culture condition for 3 hours, removed the medium carefully and dissolved formazan in DMSO, assay was used to assess the surviving cells and OD values were measured using Microplate Reader Manager (Bio Rad) at wavelengths of 570/690 nm. […] Unstained viable cells were counted in hemocytometer chamber under microscope. […]
# [3] = tested on: H1792 cells; assay: Wound healing assay (gap closure); format: cell-based, human; conditions: H1792, vs Scr control, Ant-163 or a mutant piR-L-163
# Excerpt: as §1, §2
# [4] = molecular target: T1, wild-type human moesin (Moesin-WT) (Homo sapiens, UniProt P26038); assay: IP/RT-PCR binding to introduced moesin in H522 cells; conditions: H522 cells co-transfected
# T1 construct: expressed in transfected cells; host or cells: H522 cells, pcDNA3.1(+) plasmid
# T1 sequence (P26038 whole entry): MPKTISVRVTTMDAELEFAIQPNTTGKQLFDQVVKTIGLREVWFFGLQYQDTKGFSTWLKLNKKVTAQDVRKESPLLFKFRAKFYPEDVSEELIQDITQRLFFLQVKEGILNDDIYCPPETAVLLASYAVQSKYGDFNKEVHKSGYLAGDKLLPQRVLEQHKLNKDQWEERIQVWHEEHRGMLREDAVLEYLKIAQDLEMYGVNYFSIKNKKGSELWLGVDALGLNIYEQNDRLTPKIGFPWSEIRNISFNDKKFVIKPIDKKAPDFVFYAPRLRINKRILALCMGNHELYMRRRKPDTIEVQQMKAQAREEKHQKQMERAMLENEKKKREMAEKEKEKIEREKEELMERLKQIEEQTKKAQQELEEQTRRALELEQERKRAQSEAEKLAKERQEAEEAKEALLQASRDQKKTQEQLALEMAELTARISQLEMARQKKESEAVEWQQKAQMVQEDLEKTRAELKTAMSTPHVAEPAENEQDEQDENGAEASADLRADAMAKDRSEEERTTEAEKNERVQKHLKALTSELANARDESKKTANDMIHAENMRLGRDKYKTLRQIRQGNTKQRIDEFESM
# Excerpt: (§3) To determine potential element of ERM proteins critical for their binding with piR-L-163, we analyzed human and Drosophila moesin sequences using BindN (http://bioinfo.ggc.org/bindn/) and identified RRRKPDT (SEQ ID NO:488) at position 293-299 as a candidate RNA binding element (FIG. 12a, b). We then constructed plasmids containing either wild-type human moesin (Moesin-WT) or a mutant form of moesin with RRRKPDT (SEQ ID NO:488) deletion (Moesin-DM). Both plasmids produce high levels of moesin proteins in the transfected cells (FIG. 5d). We used two cell lines (H522 and HBE4) to test if this element contributes to the binding between moesin and piR-L-163. H522 cells expressed extremely low level of endogenous p-ERM (FIG. 5c) and very low level of piR-L-163 (FIG. 11a). H522 cells transfected with piR-L-163 were simultaneously transfected with either Moesin-WT or Moesin-DM to determine the potential binding ability of the introduced moesin proteins with piR-L-163. We also used the non-functional piR-L-163M1 mutant to replace piR-L-163 in the experiment as a negative control. […] We next transfected HBE4 cells which expressed both p-ERM and piR-L-163 (FIG. 4e and FIG. 11a) with either Moesin-WT or Moesin-DM after knocked down the endogenous moesin in the cells. […]
# [5] = molecular target: T2, mutant form of moesin with RRRKPDT deletion (Moesin-DM) (Homo sapiens, UniProt P26038, DEL293-299); assay: as above; conditions: H522 cells co-transfected
# T2 construct: expressed in transfected cells; host or cells: H522 cells, pcDNA3.1(+) plasmid
# T2 sequence (P26038 with tags, fused parts or gaps DEL293-299): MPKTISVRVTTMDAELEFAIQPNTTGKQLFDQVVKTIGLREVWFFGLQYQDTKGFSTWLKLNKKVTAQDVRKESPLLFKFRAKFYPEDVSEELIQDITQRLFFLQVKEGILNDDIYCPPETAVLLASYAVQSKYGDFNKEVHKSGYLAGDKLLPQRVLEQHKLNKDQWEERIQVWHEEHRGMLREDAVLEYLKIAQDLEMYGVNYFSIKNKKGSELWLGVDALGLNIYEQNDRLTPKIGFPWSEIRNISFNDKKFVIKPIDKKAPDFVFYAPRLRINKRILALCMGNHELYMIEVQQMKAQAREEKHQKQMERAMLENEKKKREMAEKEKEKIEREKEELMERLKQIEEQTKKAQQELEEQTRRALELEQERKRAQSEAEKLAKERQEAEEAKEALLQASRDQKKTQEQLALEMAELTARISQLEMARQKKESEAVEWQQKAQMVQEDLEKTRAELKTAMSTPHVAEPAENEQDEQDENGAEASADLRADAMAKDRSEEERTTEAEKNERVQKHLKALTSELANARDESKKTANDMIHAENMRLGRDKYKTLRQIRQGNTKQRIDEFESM
# Excerpt: as §3
Substance,gap closure [1],cell viability and proliferation [2],gap closure [3],binding to Moesin-WT [4],binding to Moesin-DM [5]
"Ant-163: DNA sequence antisense to piR-L-163, SEQ ID NO:496, 5′-GGTCAGAGAATCAAAGTAACATCATGATAT-3′ (DNA, backbone and methylation of C not given here)",faster gap closure,enhanced cell viability and proliferation,,,
"piR-L-163: sprRNA, SEQ ID NO:282; piRNA-L aligned to intron 10 of LAMC2; AUAUCAUGAUGUUACUUUGAUUCUCUGACC with 3′ 2′-O-methylation (listed as RNA, chemistry not fully specified; listed as Homo sapiens)",,,slower gap closure,bound to piR-L-163,failed to bind
